{
  "source": "patent EP1581790B1",
  "about": "“PEPTIDES THAT HOME TO TUMOR LYMPHATIC VASCULATURE AND METHODS OF USING SAME” (The Burnham Institute, priority 2001, dated 2009)",
  "key": {"[1]": {"conditions": "concentration of 10 µM; cited from earlier work"}, "[2]": {"tested_on": "MDA-MB-435 tumor lymphatic vasculature", "assay": "Localization in 435 tumors after intravenous injection, with blood vessel and lymphatic markers"}, "[3]": {"tested_on": "Cultured MDA-MB-435 cells", "assay": "Cytotoxicity in cell culture, trypan blue staining", "assay_type": "cell-based", "method": "Cultured MDA-MB-435 cells were incubated with a control peptide (CGEKRTRGC; SEQ ID NO: 3) or with CGNKRTRGC (SEQ ID NO: 1) at 37°C for 1, 2 or 4 hours. After staining with trypan blue, which is taken up by cells that are dead or dying, the total number of cells were counted, and the percentage of trypan blue stained cells determined. […] In particular, after four hours incubation, at least 7-fold greater trypan blue uptake was evident in cell cultures incubated with peptide SEQ ID NO: 1 as compared to cultures incubated with control peptide."}, "[4]": {"tested_on": "primary MDA-MB-435 breast carcinoma tumor cell suspensions", "assay": "Ex vivo binding of phage to primary 435 tumor cell suspensions", "set-up": "species or system Human", "conditions": "addition of synthetic peptide", "method": "Several ex vivo selections were performed with 435 tumor cell suspensions prepared from MDA-MB-435 breast carcinoma xenografts grown in nude mice, as described below. Anti-mouse CD31 was used to deplete the tumor cell mixture of blood vessel endothelial cells prior to rescuing phage bound to the CD31-negative cell population. By the third ex vivo round, the phage pool bound a tumor cell suspension approximately 350-fold over control, nonrecombinant phage. The ex vivo preselected phage pool then was subjected to an in vivo selection round by injection into the tail vein of a nude mouse bearing an MDA-MB-435 tumor. Phage were then rescued from harvested xenograft tumor tissue.\nXenografts, tumor cell suspensions and ex vivo selections were performed essentially as follows. Nude Balb/c mice were subcutaneously injected with 1 x 10^6 MDA-MB-435 tumor cells to generate breast carcinoma xenografts. Human MDA-MB-435 breast carcinoma xenograft tumors were harvested 9 to 12 weeks after implantation, and tumor cell suspensions prepared using collagenase (0.5 mg/ml, Sigma).\nThe suspension was subjected to serial washes with 1% BSA in DME to remove unbound phage. […]"}, "[5]": {"tested_on": "MDA-MB-435 human breast carcinoma cell xenografts", "assay": "Tumor treatment study", "assay_type": "in vivo, nude mice", "conditions": "67 nmol intravenously twice a week; after about two weeks of treatment; Figure 8", "method": "A tumor treatment study was performed using MDA-MB-435 human breast carcinoma cell xenografts prepared by subcutaneously injecting 1 x 10^6 cells in 200 µl PBS into nude mice. Mice (five per group) were treated intravenously twice a week with 67 nmol CGNKRTRGC peptide (SEQ ID NO: 1) or with PBS starting four weeks after tumor implantation. Tumor volumes were measured once a week for four weeks."}, "normal tissues": {"tested_on": "normal tissues", "assay": "Localization of fluorescein-labeled peptide in normal tissues after intravenous injection", "assay_type": "in vivo, mice", "method": "Several normal tissues also were studied for localization of the CGNKRTRGC (SEQ ID NO: 1) peptide.\nDetection of fluorescent peptides and biotin-conjugated tomato lectin was performed as follows. Fluorescein-conjugated peptide CGNKRTRGC (SEQ ID NO: 1) was prepared as described above. The peptide (100 µg in 200 µl of PBS) was injected into the tail vein of mice bearing MDA-MB-435 breast carcinoma tumors. After 10 minutes, biotin-conjugated lycopersicon esculentum (tomato) lectin (100 µg in 200 µl of PBS; Vector; Burlingame, California) was also injected into the tail vein. After 5 minutes, the mouse was perfused through the heart with 4% paraformaldehyde. Tissues were removed and frozen in O.C.T. embedding medium (Tissue-Tek; Torrence, California). Blood vessels were visualized by detecting the tomato lectin with streptavidin-conjugated Alexa 594 (Molecular Probes; Eugene, Oregon). Green staining indicated the presence of peptide SEQ ID NO: 1, while red staining indicated the presence of tomato lectin."}, "[6]": {"tested_on": "cultured MDA-MB-435 tumor cells", "assay": "Internalization and subcellular localization in cultured MDA-MB-435 cells", "assay_type": "cell-based, Human", "conditions": "one to five hours at 37°C; Figure 2", "method": "A fluorescein-conjugated CGNKRTRGC (SEQ ID NO: 1) peptide was utilized to further analyze cellular internalization and subcellular localization. […] Natl. Acad. Sci. 97:13003 (2000). The fluorescein-conjugated peptides were incubated with cultured MDA-MB-435 tumor cells for one to five hours at 37°C. […] Cultured 435 cells also internalized the CGNKRTRGC (SEQ ID NO: 1) phage, although the phage accumulated in the cytoplasm of the cells."}, "cultured KRIB cells": {"tested_on": "cultured KRIB cells", "assay": "Internalization of fluorescein-labeled peptide by cultured KRIB cells", "assay_type": "cell-based, human"}},
  "note": "Where no end group is shown, it is not given here.",
  "data": [
    {"substance": "D(KLAKLAK)2", "values": [
      {"measurement": "mitochondrial swelling", "setting": "[1]", "result": "marked mitochondrial swelling"}
    ]},
    {"substance": "CGNKRTRGC [CGNKRTRGC (SEQ ID NO: 1)]", "values": [
      {"measurement": "accumulation in single cells within the tumor", "setting": "[2]; fluorescein-labeled peptide", "result": "accumulated in VEGFR-3 positive single cells within the tumor"},
      {"measurement": "co-localization with the macrophage marker F4/80", "setting": "[2]; mouse, in vivo", "result": "lack of co-localization"},
      {"measurement": "trypan blue uptake relative to cultures incubated with control peptide", "setting": "[3]; four hours incubation, 37°C, control peptide SEQ ID NO: 3", "result": "at least 7 fold"},
      {"measurement": "cytotoxic effect as compared to control peptide SEQ ID NO: 3", "setting": "[3]; later time points (1, 2 or 4 hours), Figure 7", "result": "significantly enhanced cytotoxic effect"},
      {"measurement": "inhibition of binding of phage displaying the same peptide sequence", "setting": "[4]", "result": "inhibited binding"},
      {"measurement": "mean tumor volume compared to mice administered PBS alone", "setting": "[5]", "result": "at least several fold less"},
      {"measurement": "fluorescence in normal tissues", "setting": "normal tissues", "result": "seen only in the kidney tubuli"}
    ]},
    {"substance": "fluorescein-conjugated CGNKRTRGC (SEQ ID NO: 1) peptide: Fluorescein-conjugated CGNKRTRGC (SEQ ID NO: 1) peptide (cysteine pairing not given here; also: fluorescein-conjugated)", "values": [
      {"measurement": "internalization and nuclear localization in vivo", "setting": "[2]; Figure 5", "result": "internalized and transported into nuclei in vivo"},
      {"measurement": "internalization and nuclear localization in vivo", "setting": "[2]; Figure 5, listed as fluorescein-conjugated peptide (SEQ ID NO: 1)", "result": "accumulated in the nuclei lining the vessel-like structures"},
      {"measurement": "co-localization with blood vessels labeled with biotin-conjugated tomato lectin", "setting": "[2]; Figures 3A-C", "result": "notable lack of co-localization"},
      {"measurement": "co-localization with lymphatic markers VEGFR-3 and LYVE-1", "setting": "[2]; intravenously injected, Figure 5", "result": "co-localized with VEGFR-3 and LYVE-1 staining in 435 tumor tissue"},
      {"measurement": "blood vessel markers CD31 and Meca-32 on the vessels in which the substance localized", "setting": "[2]; tail vein injection", "result": "negative for the CD31 and Meca-32 blood vessel markers"},
      {"measurement": "localization within 435 tumor", "setting": "[2]; tail vein injection", "result": "localized in vessel-like structures and in individual cells within the tumor"},
      {"measurement": "uptake and subcellular localization of fluorescein-conjugated peptide", "setting": "[6]", "result": "taken up by the 435 cells and translocated into the cell nucleus"},
      {"measurement": "internalization by cultured KRIB cells", "setting": "cultured KRIB cells", "result": "internalized"}
    ]}
  ]
}
